Patent publication US10710986B2, “PD-1/PD-L1 inhibitors” (Gilead Sciences, Inc., priority 2018, dated 2020)

Target: PD-1/PD-L1 (Homo sapiens (Human), UniProt Q9NZQ7)
Test: PD-1/PD-L1 biochemical protein-protein interaction assay (ALPHA)
Settings: 0.3 nM His tagged PD-L1, 2.5 nM biotinylated Fc-PD-1, 60 minutes at 25° C., read-out: IC50 PD-L1-PD1
Protocol: Binding of the protein pairs is measured using a bead based Amplified Luminescent Proximity Homogeneous Assay (ALPHA) platform. Binding of each protein pair results in proximity of the donor and acceptor beads which leads to an increase in ALPHA signal. […] Assays are performed in 25 mM Hepes (pH 7.4), 150 mM NaCl, 3.4 mM EDTA, 0.005% Tween 20, and 0.01% BSA. […] After an assay reaction time of 60 minutes at 25° C., binding was measured with addition of 20 μg/mL ALPHA assay acceptor beads (anti-His coated) and 20 µg/mL ALPHA assay donor beads (streptavidin coated). IC50 values were calculated from the fit of the dose-response curves to a four-parameter equation.

PD-1/PD-L1, sequence (Q9NZQ7 19-238): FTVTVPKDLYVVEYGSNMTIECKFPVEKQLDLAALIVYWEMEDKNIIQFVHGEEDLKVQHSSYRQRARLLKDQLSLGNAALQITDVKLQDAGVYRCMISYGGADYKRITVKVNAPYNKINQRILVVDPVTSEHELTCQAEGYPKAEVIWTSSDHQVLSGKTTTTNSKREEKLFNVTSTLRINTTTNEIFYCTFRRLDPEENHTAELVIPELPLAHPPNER

| Structure (SMILES) | IC50 [nM] |
| --- | --- |
| OC1CN(Cc2cnc(-c3cccc(-c4cccc(-c5cnc(CN6CC(O)C6)cn5)c4Cl)c3Cl)cn2)C1 [compound 81] | 4.18 |
| CCc1nc(-c2cccc(-c3cccc(-c4cnc(CN5CC(O)C5)c(CC)n4)c3Cl)c2Cl)cnc1CN1CC(O)C1 [compound 82] | 0.335 |
| CCc1nc(-c2cccc(-c3cccc(-c4cnc(CN5CC6(CNC(=O)C6)C5)c(CC)n4)c3Cl)c2Cl)cnc1CN1CC2(CNC(=O)C2)C1 [compound 83] | 0.56 |
| CCc1nc(-c2cccc(-c3cccc(-c4cnc(CN5CC6(CCC(=O)N6)C5)c(CC)n4)c3Cl)c2Cl)cnc1CN1CC2(CCC(=O)N2)C1 [compound 84] | 0.189 |
| CCc1nc(-c2cccc(-c3cccc(-c4cnc(CNC[C@@H]5CCC(=O)N5)c(CC)n4)c3Cl)c2Cl)cnc1CNC[C@@H]1CCC(=O)N1 [compound 85] | 0.976 |
| COc1nc(-c2cccc(-c3cccc(-c4cnc(CNC56CC(C5)C6)c(OC)n4)c3Cl)c2Cl)cnc1CNC12CC(C1)C2 [compound 86] | 3.05 |
| COC1CN(Cc2ncc(-c3cccc(-c4cccc(-c5cnc(CN6CC(OC)C6)c(SC)n5)c4Cl)c3Cl)nc2SC)C1 [compound 87] | 5.88 |
| CSc1nc(-c2cccc(-c3cccc(-c4cnc(CN5CC(O)C5)c(SC)n4)c3Cl)c2Cl)cnc1CN1CC(O)C1 [compound 88] | 0.217 |
| CSc1nc(-c2cccc(-c3cccc(-c4cnc(CN5CC6(CNC(=O)C6)C5)c(SC)n4)c3Cl)c2Cl)cnc1CN1CC2(CNC(=O)C2)C1 [compound 89] | 0.286 |
| CSc1nc(-c2cccc(-c3cccc(-c4cnc(CN5CC6(CCC(=O)N6)C5)c(SC)n4)c3Cl)c2Cl)cnc1CN1CC2(CCC(=O)N2)C1 [compound 90] | 0.156 |
| CSc1nc(-c2cccc(-c3cccc(-c4cnc(CNC[C@@H]5CCC(=O)N5)c(SC)n4)c3Cl)c2Cl)cnc1CNC[C@@H]1CCC(=O)N1 [compound 91] | 0.978 |
| COC1CN(Cc2ncc(-c3cccc(-c4cccc(-c5cnc(CN6CC(OC)C6)c(C)n5)c4Cl)c3Cl)nc2C)C1 [compound 92] | 1.03 |
| Cc1nc(-c2cccc(-c3cccc(-c4cnc(CN5CC(O)C5)c(C)n4)c3Cl)c2Cl)cnc1CN1CC(O)C1 [compound 93] | 0.566 |
| Cc1nc(-c2cccc(-c3cccc(-c4cnc(CN5CC6(CNC(=O)C6)C5)c(C)n4)c3Cl)c2Cl)cnc1CN1CC2(CNC(=O)C2)C1 [compound 94] | 0.862 |
| Cc1nc(-c2cccc(-c3cccc(-c4cnc(CN5CC6(CCC(=O)N6)C5)c(C)n4)c3Cl)c2Cl)cnc1CN1CC2(CCC(=O)N2)C1 [compound 95] | 0.233 |
| Cc1nc(-c2cccc(-c3cccc(-c4cnc(CNC[C@@H]5CCC(=O)N5)c(C)n4)c3Cl)c2Cl)cnc1CNC[C@@H]1CCC(=O)N1 [compound 96] | 1.5 |
| COC1CN(Cc2ncc(-c3cccc(-c4cccc(-c5cnc(CN6CC(OC)C6)c(N(C)C)n5)c4Cl)c3Cl)nc2N(C)C)C1 [compound 97] | 0.701 |
| COC1CN(Cc2ncc(-c3cccc(-c4cccc(-c5cnc(CN6CC(OC)C6)c(N(C)C)n5)c4Cl)c3Cl)nc2Cl)C1 [compound 98] | 0.647 |
| CN(C)c1nc(-c2cccc(-c3cccc(-c4cnc(CN5CC(O)C5)c(N(C)C)n4)c3Cl)c2Cl)cnc1CN1CC(O)C1 [compound 99] | 0.407 |
| CN(C)c1nc(-c2cccc(-c3cccc(-c4cnc(CN5CC(O)C5)c(Cl)n4)c3Cl)c2Cl)cnc1CN1CC(O)C1 [compound 100] | 0.146 |
| CN(C)c1nc(-c2cccc(-c3cccc(-c4cnc(CN5CC6(CNC(=O)C6)C5)c(N(C)C)n4)c3Cl)c2Cl)cnc1CN1CC2(CNC(=O)C2)C1 [compound 101] | 0.13 |
| CN(C)c1nc(-c2cccc(-c3cccc(-c4cnc(CN5CC6(CNC(=O)C6)C5)c(Cl)n4)c3Cl)c2Cl)cnc1CN1CC2(CNC(=O)C2)C1 [compound 102] | 0.223 |
| CN(C)c1nc(-c2cccc(-c3cccc(-c4cnc(CN5CC6(CCC(=O)N6)C5)c(N(C)C)n4)c3Cl)c2Cl)cnc1CN1CC2(CCC(=O)N2)C1 [compound 103] | 0.071 |
| CN(C)c1nc(-c2cccc(-c3cccc(-c4cnc(CN5CC6(CCC(=O)N6)C5)c(Cl)n4)c3Cl)c2Cl)cnc1CN1CC2(CCC(=O)N2)C1 [compound 104] | 0.077 |
| CN(C)c1nc(-c2cccc(-c3cccc(-c4cnc(CNC[C@@H]5CCC(=O)N5)c(N(C)C)n4)c3Cl)c2Cl)cnc1CNC[C@@H]1CCC(=O)N1 [compound 105] | 0.302 |
| CN(C)c1nc(-c2cccc(-c3cccc(-c4cnc(CNC[C@@H]5CCC(=O)N5)c(Cl)n4)c3Cl)c2Cl)cnc1CNC[C@@H]1CCC(=O)N1 [compound 106] | 0.36 |
| COC1CN(Cc2ncc(-c3cccc(-c4cccc(-c5cnc(CN6CC(OC)C6)c(Cl)n5)c4Cl)c3Cl)nc2Cl)C1 [compound 107] | 1.54 |

| Structure (SMILES) | IC50 [nM] |
| --- | --- |
| OC1CN(Cc2ncc(-c3cccc(-c4cccc(-c5cnc(CN6CC(O)C6)c(Cl)n5)c4Cl)c3Cl)nc2Cl)C1 [compound 108] | 0.474 |
| O=C1CC2(CN1)CN(Cc1ncc(-c3cccc(-c4cccc(-c5cnc(CN6CC7(CNC(=O)C7)C6)c(Cl)n5)c4Cl)c3Cl)nc1Cl)C2 [compound 109] | 0.586 |
| O=C1CCC2(CN(Cc3ncc(-c4cccc(-c5cccc(-c6cnc(CN7CC8(CCC(=O)N8)C7)c(Cl)n6)c5Cl)c4Cl)nc3Cl)C2)N1 [compound 110] | 0.327 |
| O=C1CC[C@@H](CNCc2ncc(-c3cccc(-c4cccc(-c5cnc(CNC[C@@H]6CCC(=O)N6)c(Cl)n5)c4Cl)c3Cl)nc2Cl)N1 [compound 111] | 0.297 |
| COc1nc(-c2cccc(-c3cccc(-c4cnc(CN5CC(O)C5)c(OC)n4)c3Br)c2Br)cnc1CN1CC(O)C1 [compound 112] | 0.076 |
| COc1nc(-c2cccc(-c3cccc(-c4cnc(CNC[C@@H]5CCC(=O)N5)c(OC)n4)c3Br)c2Br)cnc1CNC[C@@H]1CCC(=O)N1 [compound 113] | 0.211 |
| COc1nc(-c2cccc(-c3cccc(-c4cnc(CN5CC6(CNC(=O)C6)C5)c(OC)n4)c3Cl)c2Cl)ccc1C1=NCCN1 [compound 114] | 0.064 |
| COc1nc(-c2cccc(-c3cccc(-c4cnc(CN5CC6(CCC(=O)N6)C5)c(OC)n4)c3Cl)c2Cl)ccc1C1=NCCN1 [compound 115] | 0.115 |
| COc1nc(-c2cccc(-c3cccc(-c4cnc(CN5CC(O)C5)c(OC)n4)c3Cl)c2Cl)ccc1C1=NCCN1 [compound 116] | 0.064 |
| COc1nc(-c2cccc(-c3cccc(-c4cnc(CNC[C@@H]5CCC(=O)N5)c(OC)n4)c3Cl)c2Cl)ccc1C1=NCCN1 [compound 117] | 0.281 |
| COc1nc(-c2cccc(-c3cccc(-c4cnc(CN5CC(F)C5)c(OC)n4)c3Cl)c2Cl)cnc1CN1CC(F)C1 [compound 118] | 0.715 |
| COc1nc(-c2cccc(-c3cccc(-c4cnc(C5=NCC(F)(F)CN5)c(OC)n4)c3Cl)c2Cl)cnc1C1=NCC(F)(F)CN1 [compound 119] | 0.115 |
| COc1nc(-c2cccc(-c3cccc(-c4cnc(CN5CC6(CNC(=O)C6)C5)c(OC)n4)c3Cl)c2Cl)cnc1CN1CC2(CNC(=O)C2)C1 [compound 120] | 0.32 |
| COc1nc(-c2cccc(-c3cccc(-c4cnc(C5=NC[C@H](C)N5)c(OC)n4)c3Cl)c2Cl)cnc1C1=NC[C@H](C)N1 [compound 121] | 0.064 |
| COc1cc(-c2cccc(-c3cccc(-c4cnc(CN)c(OC)n4)c3Cl)c2Cl)ccc1CN [compound 122] | 1.69 |
| COc1cc(-c2cccc(-c3cccc(-c4cnc(CN5CC6(CNC(=O)C6)C5)c(OC)n4)c3Cl)c2Cl)ccc1CN1CC2(CNC(=O)C2)C1 [compound 123] | 0.112 |
| COc1cc(-c2cccc(-c3cccc(-c4cnc(CN5CC6(CCC(=O)N6)C5)c(OC)n4)c3Cl)c2Cl)ccc1CN1CC2(CCC(=O)N2)C1 [compound 124] | 0.19 |
| COc1cc(-c2cccc(-c3cccc(-c4cnc(CNC[C@@H]5CCC(=O)N5)c(OC)n4)c3Cl)c2Cl)ccc1CNC[C@@H]1CCC(=O)N1 [compound 125] | 0.225 |
| COc1nc(-c2cccc(-c3cccc(-c4cnc(CNC[C@@H]5CCC(=O)N5)c(OC)n4)c3Cl)c2Cl)ccc1CNC[C@@H]1CCC(=O)N1 [compound 126, (S)-5-((((6-(2,2′-dichloro-3′-(6-methoxy-5-(((((S)-5-oxopyrrolidin-2-yl)methyl)amino)methyl)pyrazin-2-yl)-[1,1′-biphenyl]-3-yl)-2-methoxypyridin-3-yl)methyl)amino)methyl)pyrrolidin-2-one] | 0.272 |
| COc1nc(-c2cccc(-c3cccc(-c4cnc(C5=NCC(C)(C)N5)c(OC)n4)c3Cl)c2Cl)cnc1C1=NCC(C)(C)N1 [compound 127] | 0.064 |
| COc1nc(-c2cccc(-c3cccc(-c4cnc(C5=NCC(O)CN5)c(OC)n4)c3Cl)c2Cl)cnc1C1=NCC(O)CN1 (stereo not drawn) [compound 128] | 0.557 |
| COc1nc(-c2cccc(-c3cccc(-c4cnc(C5=NC[C@@H](C)N5)c(OC)n4)c3Cl)c2Cl)cnc1C1=NC[C@@H](C)N1 [compound 129] | 0.064 |
| COc1nc(-c2cccc(-c3cccc(-c4cnc(CN5CC[C@@H](O)C5)c(OC)n4)c3Cl)c2Cl)cnc1CN1CC[C@@H](O)C1 [compound 130] | 0.185 |
| COc1nc(-c2cccc(-c3cccc(-c4cnc(CN5CC(O)C5)c(OC)n4)c3Cl)c2Cl)cnc1CN1CC(O)C1 [compound 131] | 0.309 |
| COc1nc(-c2cccc(-c3cccc(-c4cnc(CN5CC[C@H](O)C5)c(OC)n4)c3Cl)c2Cl)cnc1CN1CC[C@H](O)C1 [compound 132] | 0.753 |
| COc1nc(-c2cccc(-c3cccc(-c4cnc(C5=NC[C@H](CO)N5)c(OC)n4)c3Cl)c2Cl)cnc1C1=NC[C@H](CO)N1 [compound 133] | 0.064 |
| COc1nc(-c2cccc(-c3cccc(-c4cnc(C5=NC[C@@H](CO)N5)c(OC)n4)c3Cl)c2Cl)cnc1C1=NC[C@@H](CO)N1 [compound 134] | 0.064 |
